Reference: US20100003217A1, “Compounds and Pharmaceutical Compositions for the Treatment of Viral Infections” (priority 2008, published 2010)
Where “and” joins values, the source holds several entries; their conditions need not be identical. Equal values may be shown once.

How the values were obtained:
[1] = tested on: monkey primary hepatocytes; assay: Metabolic disposition of [^14C]-Compound 1 and [^14C]-2′-C-methyl guanosine in monkey primary hepatocytes (incubation medium, cellular extracts, nucleotide levels); assay type: in vitro ADME, Cynomolgus monkey
Method: (§1) Primary hepatocytes: Freshly isolated cells from animal and human liver were obtained in suspension on ice. Cells were pelleted by centrifugation at 70-75×g (rat) or 95-90×g (monkey and human) and resuspended at 0.8 million cells per mL of platting medium (William's E supplemented with 5% FBS, 0.5% penicillin-streptomycin, 1% L-glutamine, 4 μg/mL insulin and 1 μM dexamethasone). Multi-well collagen I-coated plates (rat tail collagen type I; 12- or 6-well) were then seeded by addition of 1 mL (12-well; 0.8 million cells/well) or 2 mL (6-well; 1.6 million cells/well) of cell suspension. The plates were gently shaken to evenly distribute the cells and placed in an incubator at 37° C. for approximately 4 to 6 hours to allow cells to attach. Once cells were attached, the platting medium was removed and replaced with hepatocyte culture medium (William's E supplemented with penicillin-streptomycin, 1% L-glutamine, 1% insulin-transferrin-selenium and 0.1 μM dexamethasone). Cells were left overnight in an incubator at 37° C. to acclimatize to culture and the medium.
(§2) Hepatocyte incubations with radiolabeled Compound 1 and 2′-C-methyl guanosine, both labeled in the C-8 position of the guanine moiety, were conducted at a final volume of 2.0 mL hepatocyte culture medium/well ([…]). Culture medium from overnight incubation of cells was removed and replaced with fresh medium, pre-warmed to 37° C., containing 1 or 10 μM [^14C]-Compound 1 ([…]) or [^14C]-2′-C-methyl guanosine (127 DPM/μmol) from a stock solution in DMSO (final DMSO concentration was 0.1%) or 50% ethanol (final ethanol concentration was 0.2%). After 1, 4, 8 and 24 hours, 0.5-1.0 mL of incubation medium was removed and stored at −20° C. until analysis (described below). The remaining medium was discarded and cell monolayers were carefully washed two times with ice-cold PBS. Following the last wash, all PBS was carefully removed and 1.0 mL of extraction solution (ice-cold 70% methanol) added. Cells were scrapped off and suspended in the extraction solution, transferred to 2 mL polypropylene microfuge tubes and intracellular contents extracted overnight at −20° C.
(§3) Preliminary identification of putative metabolites was conducted by comparing the retention time of observed metabolites in incubation medium and cellular extracts with retention times obtained with chemically synthesized standards using the chromatography conditions described below. Further identification of 2′-C-methyl guanosine nucleotides (mono-, di- and triphosphate) was carried out by incubating cellular extract samples with alkaline phosphatase (10 units for 60 min at 37° C.) and comparing the HPLC retention times of the resulting nucleosides with that of authentic 2′-C-methyl guanosine.
(§4) Cellular extracts were prepared by centrifugation at 16,000 RCF using an Eppendorf microcentrifuge (Eppendorf, Model 5415D) for 10 min to remove cellular debris. An aliquot of 5-10 μL of the supernatant was added to 5 mL of EcoLite™ (MP, Irvine, Calif.) liquid scintillation cocktail and radioactivity measured by liquid scintillation counting (LSC) using a Beckman Coulter LS6500 multipurpose liquid scintillation counter (Beckman Instruments, Fullerton, Calif.). The remaining sample was then dried using a Labconco refrigerated centrivap concentrator (Labconco, Kansas City, Mo.). Dry extracts were reconstituted in 120 μL of HPLC-grade water and centrifuged at 16,000 RCF using an Eppendorf microcentrifuge for 10 min. Prior to HPLC analysis (described below), radioactivity of the concentrated extracts was measured by LSC using 5 μL aliquots. Extraction recovery was then determined by comparing total radioactivity in extracts before and after drying. The remaining extract was then analyzed by HPLC with online radioactivity detection using a Flow Scintillation Analyzer Radiomatic™ 515TR. Radioactivity in the separated components was quantified by integrating the peaks using Flo-One™ Software (Perkin Elmer Life Sciences). […]

rat primary hepatocytes = assay: Metabolic disposition of [^14C]-Compound 1 and [^14C]-2′-C-methyl guanosine in rat primary hepatocytes (incubation medium, cellular extracts, nucleotide levels); assay type: in vitro ADME, Sprague Dawley rat
Method: as §1, §2, §3, §4

[2] = monkey hepatocytes (Cy234), 10 μM [^14C]-Compound 1, 4 h
[3] = monkey hepatocytes Cy230, 10 μM [^14C]-2′-C-methyl guanosine, 1 h
[4] = monkey hepatocytes Cy230, 10 μM [^14C]-2′-C-methyl guanosine, 8 h
[5] = monkey hepatocytes Cy230, 10 μM [^14C]-2′-C-methyl guanosine, 24 h
[6] = monkey hepatocytes Cy234, 10 μM [^14C]-2′-C-methyl guanosine, 1 h
[7] = monkey hepatocytes Cy234, 10 μM [^14C]-2′-C-methyl guanosine, 4 h
[8] = monkey hepatocytes Cy234, 10 μM [^14C]-2′-C-methyl guanosine, 8 h
[9] = monkey hepatocytes Cy234, 10 μM [^14C]-2′-C-methyl guanosine, 24 h
[10] = rat hepatocytes (Rs458), 1 μM [^14C]-Compound 1, 0 h
[11] = rat hepatocytes (Rs458), 1 μM [^14C]-Compound 1, 1 h
[12] = rat hepatocytes (Rs458), 1 μM [^14C]-Compound 1, 8 h

- metabolites observed in cellular extracts (% of total radioactivity) ([1]; monkey hepatocytes (Cy230, Cy234), 10 μM [^14C]-Compound 1, 8 h): 3.84% and 5.38%
- metabolites observed in cellular extracts (% of total radioactivity) ([1]; monkey hepatocytes (Cy230, Cy234), 10 μM [^14C]-Compound 1, 24 h): 6.96% and 3.34%
- 2′-C-methyl guanosine nucleotide levels in cellular extracts [1, 2]: 14.3 pmol/million cells
- metabolites observed in cellular extracts (% of total radioactivity) [1, 2]: 5.47%
- metabolites observed in medium (% of total radioactivity) ([1]; monkey hepatocytes (lot Cy234), 10 μM [^14C]-Compound 1, 4 h): 19.0%
- metabolites observed in medium (% of total radioactivity) ([1]; monkey hepatocytes (lots Cy230, Cy234), 10 μM [^14C]-Compound 1, 0 h): BLD
- metabolites observed in medium (% of total radioactivity) ([1]; monkey hepatocytes (lots Cy230, Cy234), 10 μM [^14C]-Compound 1, 24 h): 8% and 8.4% and 7.5%
- 2′-C-methyl guanosine nucleotide levels in cellular extracts ([1]; monkey hepatocytes Cy230, 10 μM [^14C]-2′-C-methyl guanosine, 0 h): 0 pmol/million cells
- 2′-C-methyl guanosine nucleotide levels in cellular extracts ([1]; monkey hepatocytes Cy230, 10 μM [^14C]-Compound 1, 0 h): 0 pmol/million cells
- 2′-C-methyl guanosine nucleotide levels in cellular extracts ([1]; monkey hepatocytes Cy230, 10 μM [^14C]-Compound 1, 1 h): 23.9 pmol/million cells
- 2′-C-methyl guanosine nucleotide levels in cellular extracts ([1]; monkey hepatocytes Cy230, 10 μM [^14C]-Compound 1, 8 h): 42.5 pmol/million cells
- 2′-C-methyl guanosine nucleotide levels in cellular extracts ([1]; monkey hepatocytes Cy230, 10 μM [^14C]-Compound 1, 24 h): 33.2 pmol/million cells
- 2′-C-methyl guanosine nucleotide levels in cellular extracts ([1]; monkey hepatocytes Cy234, 10 μM [^14C]-2′-C-methyl guanosine, 0 h): 0 pmol/million cells
- 2′-C-methyl guanosine nucleotide levels in cellular extracts [1, 6]: 0.95 pmol/million cells
- Major metabolites observed in cellular extracts (% of total radioactivity) [1, 6]: 2.19 % of total radioactivity
- 2′-C-methyl guanosine nucleotide levels in cellular extracts [1, 8]: 3.00 pmol/million cells
- Major metabolites observed in cellular extracts (% of total radioactivity) [1, 8]: 3.32 % of total radioactivity
- 2′-C-methyl guanosine nucleotide levels in cellular extracts [1, 9]: 5.50 pmol/million cells
- Major metabolites observed in cellular extracts (% of total radioactivity) [1, 9]: 5.03 % of total radioactivity
- 2′-C-methyl guanosine nucleotide levels in cellular extracts ([1]; monkey hepatocytes Cy234, 10 μM [^14C]-Compound 1, 0 h): 0 pmol/million cells
- 2′-C-methyl guanosine nucleotide levels in cellular extracts ([1]; monkey hepatocytes Cy234, 10 μM [^14C]-Compound 1, 1 h): 11.7 pmol/million cells
- 2′-C-methyl guanosine nucleotide levels in cellular extracts ([1]; monkey hepatocytes Cy234, 10 μM [^14C]-Compound 1, 8 h): 33.0 pmol/million cells
- 2′-C-methyl guanosine nucleotide levels in cellular extracts ([1]; monkey hepatocytes Cy234, 10 μM [^14C]-Compound 1, 24 h): 23.2 pmol/million cells
- metabolites observed in cellular extracts (% of total radioactivity) (rat primary hepatocytes; rat hepatocytes (Rs448, Rs458), 10 μM [^14C]-Compound 1, 1 h, listed as Compd 5): 4.37% and 2.65%
- metabolites observed in cellular extracts (% of total radioactivity) (rat primary hepatocytes; rat hepatocytes (Rs448, Rs458), 10 μM [^14C]-Compound 1, 4 h, listed as Compd 5): 4.02% and 4.53%
- metabolites observed in cellular extracts (% of total radioactivity) (rat primary hepatocytes; rat hepatocytes (Rs448, Rs458), 10 μM [^14C]-Compound 1, 8 h, listed as Compd 5): 3.23% and 3.84%
- metabolites observed in medium (% of total radioactivity) (rat primary hepatocytes; [10]): BLD
- 2′-C-methyl guanosine nucleotide levels in cellular extracts (rat primary hepatocytes; [11]): 6.00 pmol/million cells
- metabolites observed in cellular extracts (% of total radioactivity) (rat primary hepatocytes; [11]): 3.74%
- metabolites observed in medium (% of total radioactivity) (rat primary hepatocytes; [11]): BLD
- 2′-C-methyl guanosine nucleotide levels in cellular extracts (rat primary hepatocytes; [12]): 11.0 pmol/million cells
- metabolites observed in cellular extracts (% of total radioactivity) (rat primary hepatocytes; [12]): 3.51%
- metabolites observed in medium (% of total radioactivity) (rat primary hepatocytes; [12]): 6.41%
Compound: C[C@@]1(O)[C@H](O)[C@@H](COP(=O)(O)O)O[C@H]1n1cnc2c(=O)[nH]c(N)nc21 [Compound 5, [(2R)-2-methyl-β-D-ribofuranosyl]guanine 5′-monophosphate]
- 2′-C-methyl guanosine nucleotide levels in cellular extracts [1, 3]: BLD^b (BLD = below limit of detection (0.02 pmol/million cells))
- Major metabolites observed in cellular extracts (% of total radioactivity) [1, 3]: BLD^b (BLD = below limit of detection (30 DPM))
- 2′-C-methyl guanosine nucleotide levels in cellular extracts [1, 4]: BLD (BLD = below limit of detection (0.02 pmol/million cells))
- Major metabolites observed in cellular extracts (% of total radioactivity) [1, 4]: BLD (BLD = below limit of detection (30 DPM))
- 2′-C-methyl guanosine nucleotide levels in cellular extracts [1, 5]: BLD (BLD = below limit of detection (0.02 pmol/million cells))
- Major metabolites observed in cellular extracts (% of total radioactivity) [1, 5]: BLD (BLD = below limit of detection (30 DPM))
- 2′-C-methyl guanosine nucleotide levels in cellular extracts [1, 7]: BLD (BLD = below limit of detection (0.02 pmol/million cells))
- Major metabolites observed in cellular extracts (% of total radioactivity) [1, 7]: BLD (BLD = below limit of detection (30 DPM))
- 2′-C-methyl guanosine nucleotide levels in cellular extracts (rat primary hepatocytes; [10]): BLD (BLD = below limit of detection (0.02 pmol/million cells))
